# Measurements published in PubChem BioAssay (NCI).
#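 Assay format: 96-well plates, 48-hour exposure. GI50 marks 50% less growth. At the TGI there is no net growth.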
# Tests used:
# Experiment in all cases: NCI-60 cell line screen, 48 h
# [1] = test system: RPMI-8226 leukemia
# [2] = test system: CAKI-1 renal
# [3] = test system: DU-145 prostate
# [4] = test system: SK-MEL-2 melanoma
# [5] = test system: SR leukemia
# [6] = test system: CCRF-CEM leukemia
# [7] = test system: SK-OV-3 ovarian
# [8] = test system: K-562 leukemia
# [9] = test system: RXF 393 renal
# [10] = test system: NCI-H23 lung
# [11] = test system: HT29 colon
# [12] = test system: HL-60(TB) leukemia
# [13] = test system: ACHN renal
# [14] = test system: MOLT-4 leukemia
# [15] = test system: SW-620 colon
# [16] = test system: NCI/ADR-RES ovarian
# [17] = test system: SN12C renal
# [18] = test system: LOX IMVI melanoma
# [19] = test system: HOP-92 NSCLC
# [20] = test system: HCC-2998 colon
# [21] = test system: SF-268 CNS
# [22] = test system: M14 melanoma
# [23] = test system: T-47D breast
# [24] = test system: OVCAR-3 ovarian
# [25] = test system: UO-31 renal
# [26] = test system: SNB-19 CNS
# [27] = test system: HCT-116 colon
# [28] = test system: HS 578T breast
# [29] = test system: SNB-75 CNS
# [30] = test system: SF-539 CNS
# [31] = test system: NCI-H226 lung
# [32] = test system: SK-MEL-5 melanoma
# [33] = test system: MALME-3M melanoma
# [34] = test system: MDA-MB-231 breast
# [35] = test system: MCF7 breast
# [36] = test system: A498 renal
# [37] = test system: A549 NSCLC
# [38] = test system: OVCAR-5 ovarian
# [39] = test system: SK-MEL-28 melanoma
# [40] = test system: PC-3 prostate
# [41] = test system: MDA-MB-435
# [42] = test system: COLO 205 colon
# [43] = test system: KM12 colon
# [44] = test system: UACC-257 melanoma
# [45] = test system: TK-10 renal
# [46] = test system: SF-295 CNS
# [47] = test system: OVCAR-8 ovarian
# [48] = test system: HOP-62 NSCLC
# [49] = test system: U251 CNS
# [50] = test system: NCI-H522 lung
# [51] = test system: UACC-62 melanoma
# [52] = test system: OVCAR-4 ovarian
# [53] = test system: BT-549 breast
# [54] = test system: IGROV1 ovarian
# [55] = test system: NCI-H460 lung
# [56] = test system: HCT-15 colon
# [57] = test system: 786-0 renal
# [58] = test system: EKVX NSCLC
structure (smiles),measurement,setting,value
N=C(N)c1ccc(-c2ccc(-c3ccc(Cl)cc3Cl)s2)cc1F,GI50,[1],2.07 µM
same,TGI,[1],4.57 µM
same,GI50,[2],1.63 µM
same,TGI,[2],2.99 µM
same,GI50,[3],1.78 µM
same,TGI,[3],3.16 µM
same,GI50,[4],2.21 µM
same,TGI,[4],5.2 µM
same,GI50,[5],1.42 µM
same,TGI,[5],> 100 µM
same,GI50,[6],1.8 µM
same,TGI,[6],4.67 µM
same,GI50,[7],3.05 µM
same,TGI,[7],17.5 µM
C(=C\c1n(Cc2ccc3ccccc3c2)c(-c2ccccc2)c(-c2ccccc2)[n+]1Cc1ccc2ccccc2c1)/c1ccccc1,GI50,[1],0.0758 µM
same,TGI,[1],0.621 µM
same,GI50,[8],0.222 µM
same,TGI,[8],5 µM
same,GI50,[9],0.26 µM
same,TGI,[9],1.14 µM
same,GI50,[10],0.257 µM
same,TGI,[10],0.919 µM
same,GI50,[11],0.142 µM
same,TGI,[11],1.09 µM
same,GI50,[12],0.2 µM
same,TGI,[12],0.635 µM
same,GI50,[13],0.239 µM
same,TGI,[13],0.591 µM
same,GI50,[5],0.313 µM
same,TGI,[5],> 100 µM
same,GI50,[6],0.406 µM
same,TGI,[6],2.09 µM
same,GI50,[14],0.292 µM
same,TGI,[14],1.26 µM
Cc1cc2cc3cc(C)c(N(C)C)cc3nc2cc1N(C)C,GI50,[15],3.1 µM
same,TGI,[15],26.6 µM
same,GI50,[16],31.7 µM
same,TGI,[16],> 100 µM
same,GI50,[17],3.22 µM
same,TGI,[17],29.3 µM
same,GI50,[18],3.33 µM
same,TGI,[18],78 µM
same,GI50,[19],1.83 µM
same,TGI,[19],8.36 µM
same,GI50,[20],3.61 µM
same,TGI,[20],14.6 µM
same,GI50,[1],4.16 µM
same,TGI,[1],> 100 µM
same,GI50,[21],3.45 µM
same,TGI,[21],15.1 µM
same,GI50,[22],3.76 µM
same,TGI,[22],18.4 µM
same,GI50,[23],1.6 µM
same,TGI,[23],> 100 µM
same,GI50,[2],2.22 µM
same,TGI,[2],25.3 µM
same,GI50,[24],2.54 µM
same,TGI,[24],11.1 µM
same,GI50,[8],4.79 µM
same,TGI,[8],> 100 µM
same,GI50,[25],6 µM
same,TGI,[25],> 100 µM
same,GI50,[9],7.14 µM
same,TGI,[9],31.2 µM
same,GI50,[26],3.56 µM
same,TGI,[26],> 100 µM
same,GI50,[10],1.8 µM
same,TGI,[10],20.8 µM
same,GI50,[3],3.46 µM
same,TGI,[3],25.8 µM
same,GI50,[27],2.12 µM
same,TGI,[27],> 100 µM
same,GI50,[28],1.89 µM
same,TGI,[28],18.1 µM
same,GI50,[11],1.55 µM
same,TGI,[11],23.8 µM
same,GI50,[29],2.35 µM
same,TGI,[29],20.1 µM
same,GI50,[30],3.08 µM
same,TGI,[30],12.7 µM
same,GI50,[31],3.19 µM
same,TGI,[31],24 µM
same,GI50,[32],1.73 µM
same,TGI,[32],4.71 µM
same,GI50,[33],3.53 µM
same,TGI,[33],19 µM
same,GI50,[34],2.33 µM
same,TGI,[34],7.59 µM
same,GI50,[12],0.34 µM
same,TGI,[12],> 100 µM
same,GI50,[35],1.76 µM
same,TGI,[35],> 100 µM
same,GI50,[36],4.32 µM
same,TGI,[36],26.2 µM
same,GI50,[37],3 µM
same,TGI,[37],> 100 µM
same,GI50,[38],8.37 µM
same,TGI,[38],> 100 µM
same,GI50,[4],4.02 µM
same,TGI,[4],75.7 µM
same,GI50,[39],2.8 µM
same,TGI,[39],9.55 µM
same,GI50,[40],2.4 µM
same,TGI,[40],39.9 µM
same,GI50,[13],4.76 µM
same,TGI,[13],> 100 µM
same,GI50,[41],2.77 µM
same,TGI,[41],11.8 µM
same,GI50,[42],1.84 µM
same,TGI,[42],7.41 µM
same,GI50,[43],1.66 µM
same,TGI,[43],6.22 µM
same,GI50,[44],3.37 µM
same,TGI,[44],21.8 µM
same,GI50,[45],4.03 µM
same,TGI,[45],31.2 µM
same,GI50,[46],1.81 µM
same,TGI,[46],8.52 µM
same,GI50,[47],2.83 µM
same,TGI,[47],28.1 µM
same,GI50,[48],5.08 µM
same,TGI,[48],19.9 µM
same,GI50,[49],1.42 µM
same,TGI,[49],> 100 µM
same,GI50,[50],3.76 µM
same,TGI,[50],30 µM
same,GI50,[6],8.99 µM
same,TGI,[6],> 100 µM
same,GI50,[51],2.97 µM
same,TGI,[51],17.2 µM
same,GI50,[52],2.25 µM
same,TGI,[52],19.5 µM
same,GI50,[14],3.29 µM
same,TGI,[14],> 100 µM
same,GI50,[7],2.87 µM
same,TGI,[7],25.4 µM
same,GI50,[53],4.26 µM
same,TGI,[53],15.6 µM
same,GI50,[54],4.96 µM
same,TGI,[54],> 100 µM
same,GI50,[55],2.37 µM
same,TGI,[55],11.5 µM
same,GI50,[56],12.1 µM
same,TGI,[56],> 100 µM
same,GI50,[57],3.87 µM
same,TGI,[57],16.3 µM
COc1ccc(N2C(=O)C3ON(C(C(N)=O)c4ccccc4)C(c4ccc(-c5ccccc5)cc4)C3C2=O)cc1 (stereo unspecified),TGI,[15],> 50 µM
same,TGI,[16],> 50 µM
same,TGI,[17],> 50 µM
same,TGI,[18],> 50 µM
same,TGI,[1],> 50 µM
same,TGI,[21],> 50 µM
same,TGI,[22],> 50 µM
same,TGI,[23],> 50 µM
same,TGI,[2],> 50 µM
same,TGI,[24],> 50 µM
same,TGI,[8],> 50 µM
same,TGI,[25],> 50 µM
same,TGI,[58],> 50 µM
same,TGI,[9],> 50 µM
same,TGI,[26],> 50 µM
same,TGI,[10],> 50 µM
same,TGI,[3],> 50 µM
same,TGI,[27],> 50 µM
same,TGI,[28],> 50 µM
same,TGI,[11],> 50 µM
same,TGI,[29],> 50 µM
same,TGI,[30],> 50 µM
same,TGI,[31],> 50 µM
same,TGI,[33],> 50 µM
same,TGI,[34],> 50 µM
same,TGI,[12],> 50 µM
same,TGI,[35],> 50 µM
same,TGI,[36],> 50 µM
same,TGI,[37],> 50 µM
same,TGI,[38],> 50 µM
same,TGI,[4],> 50 µM
same,TGI,[39],> 50 µM
same,TGI,[40],> 50 µM
same,TGI,[13],> 50 µM
same,TGI,[41],> 50 µM
same,TGI,[5],> 50 µM
same,TGI,[42],> 50 µM
same,TGI,[43],> 50 µM
same,TGI,[44],> 50 µM
same,TGI,[45],> 50 µM
same,TGI,[46],> 50 µM
same,TGI,[47],> 50 µM
same,TGI,[48],> 50 µM
same,TGI,[49],> 50 µM
same,TGI,[50],> 50 µM
same,TGI,[6],> 50 µM
same,TGI,[51],> 50 µM
same,TGI,[52],> 50 µM
same,TGI,[14],> 50 µM
same,TGI,[7],> 50 µM
same,TGI,[53],> 50 µM
same,TGI,[54],> 50 µM
same,TGI,[55],> 50 µM
same,TGI,[56],> 50 µM
same,TGI,[57],> 50 µM
